# Experimental data as given in the supplement of paper PMC10307832.
# Compound: C(C(=O)C(=O)O)Br [Bromopyruvate] + Cc1cc(Nc2cc(N3CCN(C)CC3)nc(Sc3ccc(NC(=O)C4CC4)cc3)n2)n[nH]1 [Tozasertib] (partner 0.1 µM)
# Assay: relative viability (nuclei count vs DMSO), 5 days (fraction); higher = more cells survive
# Settings: first compound 1 µM
# Procedure, shortened: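 Cells from lung cancer lines were seeded into 1536-well plates and, one day later, dosed by pin tool. Treatments were either a single drug or a fixed dose of an anchor drug with five library-drug doses (not always all listed) in √10 steps. After 5 days, nuclei were stained in a one-step fixation (final 0.05% Triton X-100, 1% formaldehyde, 1 ug/ml Hoechst) and counted on 4× images, and relative viability is the treated-to-vehicle nuclei ratio, as the median of duplicate plates.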
row,Cell Line,relative viability
1,NCI-H647,0.289
2,LK-2,0.171
3,NCI-H2342,0.594
4,SK-MES-1,0.877
5,COR-L23,0.198
6,COR-L 105,0.36
7,ChaGo-K-1,0.234
8,HCC-44,0.953
9,SW 900,0.54
10,NCI-H1648,0.514
11,NCI-H2023,0.31
12,NCI-H520,0.467
13,SW 1573,0.191
14,SK-LU-1,0.328
15,NCI-H661,0.35

# Same assay, conditions: first compound 3.162 µM
row,Cell Line,relative viability
1,NCI-H522,0.549
2,NCI-H1623,0.423
3,NCI-H838,0.291
4,NCI-H1650,0.489
5,NCI-H2009,0.78
6,NCI-H1993,0.629
7,PC-14,0.566
8,LCLC-103H,0.446
9,NCI-H596,0.943
10,NCI-H2228,0.252
11,EMC-BAC-2,0.289
12,NCI-H2087,0.284
13,HCC-366,0.142
14,NCI-H1666,0.722
15,NCI-H647,0.221
16,LK-2,0.169
17,NCI-H2342,0.616
18,SK-MES-1,0.926
19,COR-L23,0.202
20,COR-L 105,0.34
21,ChaGo-K-1,0.263
22,HCC-44,1
23,SW 900,0.455
24,NCI-H1648,0.573
25,NCI-H2023,0.4
26,NCI-H520,0.448
27,SW 1573,0.184
28,SK-LU-1,0.349
29,NCI-H661,0.361

# Same assay, conditions: first compound 10 µM
row,Cell Line,relative viability
1,NCI-H522,0.547
2,NCI-H1623,0.527
3,NCI-H838,0.305
4,NCI-H1650,0.362
5,NCI-H2009,0.767
6,NCI-H1993,0.697
7,PC-14,0.633
8,LCLC-103H,0.466
9,NCI-H596,1.1
10,NCI-H2228,0.239
11,EMC-BAC-2,0.317
12,NCI-H2087,0.234
13,HCC-366,0.0931
14,NCI-H1666,0.543
15,NCI-H647,0.29
16,LK-2,0.174
17,NCI-H2342,0.433
18,SK-MES-1,0.948
19,COR-L23,0.183
20,COR-L 105,0.279
21,ChaGo-K-1,0.247
22,HCC-44,0.997
23,SW 900,0.44
24,NCI-H1648,0.412
25,NCI-H2023,0.348
26,NCI-H520,0.395
27,SW 1573,0.159
28,SK-LU-1,0.333
29,NCI-H661,0.335

# Same assay, conditions: first compound 31.62 µM
row,Cell Line,relative viability
1,NCI-H522,0.485
2,NCI-H1623,0.468
3,NCI-H838,0.242
4,NCI-H1650,0.504
5,NCI-H2009,0.723
6,NCI-H1993,0.578
7,PC-14,0.633
8,LCLC-103H,0.466
9,NCI-H596,0.878
10,NCI-H2228,0.284
11,EMC-BAC-2,0.267
12,NCI-H2087,0.269
13,HCC-366,0.12
14,NCI-H1666,0.603
15,NCI-H647,0.298
16,LK-2,0.179
17,NCI-H2342,0.483
18,SK-MES-1,0.98
19,COR-L23,0.204
20,COR-L 105,0.352
21,ChaGo-K-1,0.216
22,HCC-44,1.02
23,SW 900,0.564
24,NCI-H1648,0.522
25,NCI-H2023,0.482
26,NCI-H520,0.422
27,SW 1573,0.171
28,SK-LU-1,0.382
29,NCI-H661,0.348

# Same assay, conditions: first compound 100 µM
row,Cell Line,relative viability
1,NCI-H522,0.391
2,NCI-H1623,0.369
3,NCI-H838,0.293
4,NCI-H1650,0.241
5,NCI-H2009,0.444
6,NCI-H1993,0.598
7,PC-14,0.628
8,LCLC-103H,0.544
9,NCI-H596,0.412
10,NCI-H2228,0.248
11,EMC-BAC-2,0.314
12,NCI-H2087,0.258
13,HCC-366,0.0884
14,NCI-H1666,0.51
15,NCI-H647,0.389
16,LK-2,0.177
17,NCI-H2342,0.412
18,SK-MES-1,0.9
19,COR-L23,0.0755
20,COR-L 105,0.435
21,ChaGo-K-1,0.205
22,HCC-44,0.882
23,SW 900,0.514
24,NCI-H1648,0.613
25,NCI-H2023,0.39
26,NCI-H520,0.328
27,SW 1573,0.0582
28,SK-LU-1,0.266
29,NCI-H661,0.362
